Test results from patent US20210198277A1, “AMINE-SUBSTITUTED ARYL OR HETEROARYL COMPOUNDS” (Epizyme, Inc., priority 2016, published 2021).

Key:
EHMT1 = target: T1, EHMT1 (Homo sapiens, UniProt Q9H9B1); test: EHMT1 enzyme assay on peptide substrate (EHMT1 PEP); type: biochemical; conditions: Table II; read-out: EHMT1 PEP (IC50 μM)
T1 sequence (Q9H9B1 1-1298): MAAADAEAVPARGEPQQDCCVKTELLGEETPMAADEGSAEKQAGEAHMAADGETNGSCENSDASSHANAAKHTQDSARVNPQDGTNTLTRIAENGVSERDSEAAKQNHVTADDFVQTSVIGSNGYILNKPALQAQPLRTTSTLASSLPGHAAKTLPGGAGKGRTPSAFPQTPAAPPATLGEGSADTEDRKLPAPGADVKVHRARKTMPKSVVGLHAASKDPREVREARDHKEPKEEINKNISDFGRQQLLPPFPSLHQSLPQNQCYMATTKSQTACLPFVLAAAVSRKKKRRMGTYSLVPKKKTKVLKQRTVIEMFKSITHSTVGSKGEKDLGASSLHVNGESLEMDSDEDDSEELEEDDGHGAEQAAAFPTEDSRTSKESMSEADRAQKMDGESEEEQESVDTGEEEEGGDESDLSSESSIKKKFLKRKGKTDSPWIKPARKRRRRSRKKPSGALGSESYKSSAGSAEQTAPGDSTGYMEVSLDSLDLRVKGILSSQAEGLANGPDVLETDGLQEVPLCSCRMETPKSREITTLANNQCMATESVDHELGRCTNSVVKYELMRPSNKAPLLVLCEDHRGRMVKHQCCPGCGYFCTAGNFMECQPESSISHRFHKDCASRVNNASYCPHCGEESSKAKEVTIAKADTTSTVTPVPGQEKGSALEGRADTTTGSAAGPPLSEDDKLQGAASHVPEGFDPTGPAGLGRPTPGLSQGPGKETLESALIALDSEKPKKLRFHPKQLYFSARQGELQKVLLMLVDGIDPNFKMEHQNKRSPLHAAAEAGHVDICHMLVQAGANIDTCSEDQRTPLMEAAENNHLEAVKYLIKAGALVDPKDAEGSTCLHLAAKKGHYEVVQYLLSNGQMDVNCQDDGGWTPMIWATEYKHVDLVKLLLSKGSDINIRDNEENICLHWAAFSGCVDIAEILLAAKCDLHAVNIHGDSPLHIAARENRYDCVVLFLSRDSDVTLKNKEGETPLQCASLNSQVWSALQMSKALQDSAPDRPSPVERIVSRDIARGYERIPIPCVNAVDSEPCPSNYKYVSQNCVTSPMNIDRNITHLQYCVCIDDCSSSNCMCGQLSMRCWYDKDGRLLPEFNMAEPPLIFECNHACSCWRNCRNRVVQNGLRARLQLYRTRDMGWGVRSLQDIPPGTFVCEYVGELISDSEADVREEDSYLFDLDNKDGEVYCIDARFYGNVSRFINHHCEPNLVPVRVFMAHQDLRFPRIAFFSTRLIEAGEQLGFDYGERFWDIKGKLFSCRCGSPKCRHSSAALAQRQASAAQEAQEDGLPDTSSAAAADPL

human EHMT2 913-1193 = target: T2, human EHMT2 913-1193 (Homo sapiens, UniProt Q96KQ7); test: EHMT2 enzyme assay on histone peptide substrate (EHMT2 PEP); type: biochemical; conditions: Table II; read-out: EHMT2 PEP (IC50 μM)
T2 construct: recombinant purified human EHMT2 913-1193, Viva; purchased Viva
T2 sequence (Q96KQ7 913-1193): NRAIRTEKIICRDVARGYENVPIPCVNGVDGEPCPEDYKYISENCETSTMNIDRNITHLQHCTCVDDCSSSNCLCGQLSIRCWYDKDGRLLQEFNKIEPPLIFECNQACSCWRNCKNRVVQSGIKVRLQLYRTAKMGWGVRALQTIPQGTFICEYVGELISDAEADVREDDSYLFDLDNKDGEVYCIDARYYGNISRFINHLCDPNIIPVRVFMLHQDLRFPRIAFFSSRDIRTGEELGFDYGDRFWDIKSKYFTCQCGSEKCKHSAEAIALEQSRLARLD
In short: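 Compounds (10-point, 3-fold dilutions, top 50 μM final, 2% DMSO) preincubated 30 min with 0.031 nM EHMT2 in 20 mM Bicine pH 7.5, 0.002% Tween 20, 0.005% gelatin, 1 mM TCEP. Biotinylated histone peptide methylated with ^3H-SAM 60 min at room temperature. Quenched with unlabeled SAM; product captured on streptavidin Flashplate, scintillation counted.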

| Compound | IC50 (EHMT1) [µM] | IC50 (human EHMT2 913-1193) [µM] |
| --- | --- | --- |
| COc1ccc(Nc2ccc3cnn(C)c3c2)cc1OCCCN1CCCC1 [Compound 217] | > 10 | > 10 |
| COc1ccc(Nc2ccc3ncn(C)c3n2)cc1OCCCN1CCCC1 [Compound 218] | > 10 | > 10 |
| COc1ccc(Nc2ncc3ncn(C)c3n2)cc1OCCCN1CCCC1 [Compound 219] | > 10 | > 10 |
| COc1ccc(Nc2cccc3ncnn23)cc1OCCCN1CCCC1 [Compound 220] | > 10 | > 10 |
| COc1ccc(Nc2ccc3nn(C)cc3c2)cc1OCCCN1CCCC1 [Compound 221] | > 10 | > 10 |
| COc1ccc(Nc2cccc3cn(C)nc23)cc1OCCCN1CCCC1 [Compound 222] | > 10 | > 10 |
| COc1ccc(Nc2ccc3ncc(C)n3n2)cc1OCCCN1CCCC1 [Compound 223] | 1 to 10 | 1 to 10 |
| COc1ccc(Nc2nccc(-c3cnn(C)c3)n2)cc1OCCCN1CCCC1 [Compound 224] | > 10 | > 10 |
| COc1ccc(Nc2nccc(Nc3cccc(F)c3)n2)cc1OCCCN1CCCC1 [Compound 225] | 1 to 10 | 1 to 10 |
| COc1ccc(Nc2nccc(NCC3CCOCC3)n2)cc1NCCCN1CCCC1 [Compound 226] | 1 to 10 | 0.1 to 1 |
| COc1ccc(OCCCN2CCCC2)cc1Nc1nccc(NCC2CCOCC2)n1 [Compound 227] | > 10 | > 10 |
| COc1ccc(NCCCN2CCCC2)cc1Nc1nccc(NCC2CCOCC2)n1 [Compound 228] | > 10 | > 10 |
| CNc1ccnc(Nc2ccc(OC)c(OCCCN3CC[C@@H](F)C3)c2)n1 [Compound 229] | 0.1 to 1 | 0.1 to 1 |
| CNc1ccnc(Nc2ccc(OC)c(OCCCN3CC(F)C3)c2)n1 [Compound 230] | 1 to 10 | 1 to 10 |
| CNc1nccc(Nc2ccc(OC)c(OCCCN3CCCC3)c2)n1 [Compound 231] | 0.1 to 1 | 0.1 to 1 |
| CNc1cc(C)nc(Nc2ccc(F)c(OCCCN3CCCC3)c2)n1 [Compound 232] | > 10 | > 10 |
| CNc1nc(Nc2ccc(OC)c(OCCCN3CCCC3)c2)ncc1C#N [Compound 233] | > 10 | > 10 |
| CNc1nc(Nc2ccc(OC)c(OCCCN3CCCC3)c2)ncc1C(F)(F)F [Compound 234] | > 10 | > 10 |

| Compound | IC50 (EHMT1) [µM] | IC50 (human EHMT2 913-1193) [µM] |
| --- | --- | --- |
| CNc1ncc(C(F)(F)F)c(Nc2ccc(OC)c(OCCCN3CCCC3)c2)n1 [Compound 235] | > 10 | > 10 |
| CNc1nc(Nc2ccc(OC)c(OCCCN3CCCC3)c2)nc(C)c1F [Compound 236] | 0.1 to 1 | 0.1 to 1 |
| CNc1ccnc(Nc2ccc(OC)c(OCCN3CCOCC3)c2)n1 [Compound 237] | 1 to 10 | 1 to 10 |
| CNc1ccnc(Nc2ccc3c(c2)N(C(=O)CCN(C)C)CC3)n1 [Compound 239] | > 10 | > 10 |
| CCc1cc(NC)nc(Nc2ccc(OC)c(OCCCN3CCCC3)c2)n1 [Compound 240] | < 0.1 | < 0.1 |
| COc1ccc(Nc2nccc(CNC3CCOCC3)n2)cc1OCCCNc1ccccc1 [Compound 241] | > 10 | > 10 |
| COc1ccc(Nc2cnnc(NCC3CCN(C(C)=O)CC3)c2)cc1OCCCN1CCCC1 [Compound 242] | 1 to 10 | 1 to 10 |
| COc1ccc(Nc2nccc(NCC3CCOCC3)n2)cc1OC1CC2(C1)CN(C)C2 [Compound 243] | > 10 | > 10 |
| CNc1ccnc(Nc2ccc(F)c(OCCCN3CCCC3)c2)n1 [Compound 244] | > 10 | > 10 |
| COc1ccc(Nc2nccc(N)n2)cc1OCCCN1CCCC1 [Compound 245] | 0.1 to 1 | 0.1 to 1 |
| CNc1cnnc(Nc2ccc(OC)c(OCCCN3CCCC3)c2)c1 [Compound 246] | 0.1 to 1 | 0.1 to 1 |
| CNc1cncc(Nc2ccc(OC)c(OCCCN3CCCC3)c2)n1 [Compound 247] | 1 to 10 | 1 to 10 |
| CNc1cc(Nc2cc(OCCCN3CCCC3)c(OC)cn2)ccn1 [Compound 248] | < 0.1 | < 0.1 |
| COc1ccc(Nc2nccc3[nH]ncc23)cc1OCCCN1CCCC1 [Compound 249] | > 10 | > 10 |
| COc1ccc(Nc2ccnc3[nH]ccc23)cc1OCCCN1CCCC1 [Compound 250] | 1 to 10 | 1 to 10 |
| CC(C)Nc1ccnc(Nc2cccc(OCCCN3CC[C@@H](F)C3)c2)n1 [Compound 251] | > 10 | > 10 |
| CNc1ccnc(Nc2cccc(OC[C@H](O)CN3CCCC3)c2)n1 [Compound 252] | 1 to 10 | 1 to 10 |
| CNc1ccnc(Nc2cccc(OC[C@@H](O)CN3CCCC3)c2)n1 [Compound 253] | > 10 | > 10 |
